From US8372799B2, “Reverse protein” (Apeptico Forschung und Entwicklung GmbH, priority 2007, dated 2013)
Where a SMILES comes first, the peptide text is derived from it. Bridges are numbered along the chain shown (N, C = ends).

Target: T1, epithelial sodium channels (Homo sapiens, UniProt P37088+P51168+P51170)
T1 construct: endogenous in cells; host or cells: A549 human lung epithelial cells (ATCC CCL-185)
T1 sequence (P37088 1-669): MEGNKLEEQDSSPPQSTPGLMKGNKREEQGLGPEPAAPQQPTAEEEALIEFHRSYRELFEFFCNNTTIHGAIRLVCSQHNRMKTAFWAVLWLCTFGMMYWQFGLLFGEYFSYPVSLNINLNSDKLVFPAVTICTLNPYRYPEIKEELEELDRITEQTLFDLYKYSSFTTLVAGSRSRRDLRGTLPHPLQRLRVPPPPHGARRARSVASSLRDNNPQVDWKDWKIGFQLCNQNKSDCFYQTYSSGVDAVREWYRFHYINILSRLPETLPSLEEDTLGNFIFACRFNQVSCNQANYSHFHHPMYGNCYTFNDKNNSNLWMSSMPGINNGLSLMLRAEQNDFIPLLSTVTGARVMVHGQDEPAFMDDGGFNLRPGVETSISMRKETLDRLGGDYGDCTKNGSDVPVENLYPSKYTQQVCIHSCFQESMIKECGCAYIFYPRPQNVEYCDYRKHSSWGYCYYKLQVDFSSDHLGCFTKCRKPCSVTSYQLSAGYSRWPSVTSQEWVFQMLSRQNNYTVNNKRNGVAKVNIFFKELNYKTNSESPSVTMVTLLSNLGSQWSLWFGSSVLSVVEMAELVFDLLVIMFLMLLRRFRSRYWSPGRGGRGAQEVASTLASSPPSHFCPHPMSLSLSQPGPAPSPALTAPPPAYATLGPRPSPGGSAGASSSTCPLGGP
T1 sequence (P51168 1-640): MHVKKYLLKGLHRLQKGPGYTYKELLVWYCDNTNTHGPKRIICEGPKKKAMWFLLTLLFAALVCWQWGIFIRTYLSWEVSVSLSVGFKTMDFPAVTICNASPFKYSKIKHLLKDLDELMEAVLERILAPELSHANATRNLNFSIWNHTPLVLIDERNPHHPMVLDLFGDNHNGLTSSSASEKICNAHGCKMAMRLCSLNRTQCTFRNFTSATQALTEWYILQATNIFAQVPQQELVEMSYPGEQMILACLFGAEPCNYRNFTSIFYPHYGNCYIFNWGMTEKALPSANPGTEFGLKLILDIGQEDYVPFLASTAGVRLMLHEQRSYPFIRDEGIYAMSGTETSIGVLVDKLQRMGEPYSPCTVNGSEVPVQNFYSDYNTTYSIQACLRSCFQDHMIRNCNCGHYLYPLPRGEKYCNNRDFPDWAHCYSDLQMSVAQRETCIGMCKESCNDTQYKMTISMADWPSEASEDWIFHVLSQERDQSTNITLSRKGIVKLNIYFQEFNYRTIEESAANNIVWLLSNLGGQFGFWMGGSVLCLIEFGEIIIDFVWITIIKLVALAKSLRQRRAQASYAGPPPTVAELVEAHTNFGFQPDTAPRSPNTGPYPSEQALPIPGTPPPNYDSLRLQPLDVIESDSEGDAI
T1 sequence (P51170 1-649): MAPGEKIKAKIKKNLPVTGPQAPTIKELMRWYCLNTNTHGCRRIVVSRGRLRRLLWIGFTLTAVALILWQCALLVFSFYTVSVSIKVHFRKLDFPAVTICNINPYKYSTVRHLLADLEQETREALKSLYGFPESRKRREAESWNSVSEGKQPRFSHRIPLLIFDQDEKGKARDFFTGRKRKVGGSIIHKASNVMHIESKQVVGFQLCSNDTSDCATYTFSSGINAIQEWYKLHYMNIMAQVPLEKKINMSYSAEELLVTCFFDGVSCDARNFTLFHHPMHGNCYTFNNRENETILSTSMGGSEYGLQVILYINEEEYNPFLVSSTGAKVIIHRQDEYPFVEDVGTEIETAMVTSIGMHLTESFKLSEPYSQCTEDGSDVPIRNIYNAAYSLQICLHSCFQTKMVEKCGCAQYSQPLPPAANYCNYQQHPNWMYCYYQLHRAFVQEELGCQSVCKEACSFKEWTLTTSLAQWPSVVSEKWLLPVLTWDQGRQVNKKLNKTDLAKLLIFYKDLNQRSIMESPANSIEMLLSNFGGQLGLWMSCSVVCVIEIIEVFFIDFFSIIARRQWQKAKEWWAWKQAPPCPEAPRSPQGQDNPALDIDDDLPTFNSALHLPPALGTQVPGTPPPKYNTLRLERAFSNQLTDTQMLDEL
Assay: Patch-clamp activation of sodium ion channels in A549 cells
Format: cell-based
Settings: whole cell / cell-attached, amiloride-sensitive sodium current
Source text: Furthermore, a method common in laboratories is to detect the activation of ion channels by means of patch-clamp experiments, and this is described, for example, in Clunes M. T. et al, J Physiol Volume 557, No. 3, 809-819 (Jun. 15, 2004). For patch-clamp examinations of ion channels, a glass cannula is stretched thin and filled with a neutral buffer solution. The glass cannula (patch-clamp pipette) is carefully pressed onto an intact epithelial cell. A piece of membrane is located below the pipette. An electrical resistance is thereby produced between the interior of the pipette and the external solution. An electrode attached to a sensitive amplifier dips into the pipette solution.
The electrophysiological experiments were performed on human A549 cells (ATTC No. CCL-185). A549 cells are human lung epithelial cells which are involved in the diffusion of water and electrolytes in the lungs.
The cells were suspended in DMEM-F-12 medium with 1% penicillin-streptomycin and 10% fetal calf serum, transferred into plastic cell culture vessels and cultivated in the incubator with 95% air and 5% CO2 at 37° C. The medium was changed 2 to 3 times per week. The cells double within approx. 22 hours and a cell concentration of more than 7×10^4 cells per cm^2 was not exceeded.
Macroscopic currents and single-channel currents were discharged from A549 cells in the “whole cell” and “cell-attached” configuration of the “patch-clamp” technique (Hamill et al, Pflugers Arch. 1981, 391(2):85-100, 1981). For the current dissipations in the “whole cell” configuration, the following bath and electrode solutions were used:
Bath solution: 135 mM sodium methane sulfonate, 10 mM NaCl, 2.7 mM KCl, 1.8 mM CaCl2, 2 mM MgCl2, 5.5 mM glucose, and 10 mM HEPES, pH 7.4. […]
The cover slips with the cells cultivated thereon were transferred into a test bath with a capacity of 1 ml, fixed on the microscope table (Axiovert 100, 400-fold magnification), and the cells were superfused with the above-described bath solution. […] In the “cell-attached” configuration, the current can be measured through individual ion channels beneath the electrode tip. In the “whole cell” configuration, the membrane was penetrated beneath the electrode tip so that the current flowing through all ion channels of the cell could be measured. […] Upon obtaining a Gigaohm seal, a defined membrane retaining potential was applied via a pre-amplifier (CV-4 Headstage, Axon Instruments) and an amplifier (Axopatch 1D, Axon Instr.) and the current thereby flowing through the ion channels was measured.
The pulse protocol consisted of a hyperpolarization to −100 mV for 1 s at an interval of 5 s. […] The current dissipations thus obtained were stored and analyzed by means of the program PCLAMP 6.0. […]

Row | SMILES | activation of the sodium ion channels (patch clamp)
1 | CC[C@H](C)[C@H](NC(=O)[C@H](C)N)C(=O)N[C@@H](CCCCN)C(=O)N[C@@H](CO)C(=O)N1CCC[C@H]1C(=O)N[C@H]1CSSC[C@@H](C(=O)N2CCC[C@H]2C(=O)N[C@@H](CO)C(=O)N[C@H](C(=O)N[C@@H](Cc2c[nH]cn2)C(=O)N[C@H](C(=O)O)C(C)C)[C@@H](C)O)NC(=O)CNC(=O)CNC(=O)[C@H](CCCCN)NC(=O)[C@H](C)NC(=O)[C@H](CCC(=O)O)NC(=O)[C@H](C)NC(=O)CNC(=O)[C@H](CCC(=O)O)NC(=O)[C@@H]2CCCN2C(=O)[C@H]([C@@H](C)O)NC(=O)[C@H](CCC(=O)O)NC(=O)[C@H](CCCNC(=N)N)NC(=O)[C@H](CCC(N)=O)NC1=O [SEQ ID NO:1] (H-AIKSPCQRETPEGAEAKGGCPSTHV-OH; disulfide 6-20) | activation of the sodium ion channels
2 | C[C@@H]1NC(=O)CNC(=O)[C@H](CCC(=O)O)NC(=O)[C@@H]2CCCN2C(=O)[C@H]([C@@H](C)O)NC(=O)[C@H](CCC(=O)O)NC(=O)[C@H](CCCNC(=N)N)NC(=O)[C@H](CCC(N)=O)NC(=O)[C@@H](NC(=O)[C@@H]2CCCN2C(=O)[C@H](CO)NC(=O)[C@@H](N)CCCCN)CSSC[C@@H](C(=O)N2CCC[C@H]2C(=O)N[C@@H](CO)C(=O)O)NC(=O)CNC(=O)CNC(=O)[C@H](CCCCN)NC(=O)[C@H](C)NC(=O)[C@H](CCC(=O)O)NC1=O [SEQ ID NO:2] (H-KSPCQRETPEGAEAKGGCPS-OH; disulfide 4-18) | activation of the sodium ion channels
3 | C[C@@H]1NC(=O)CNC(=O)[C@H](CCC(=O)O)NC(=O)[C@@H]2CCCN2C(=O)[C@H]([C@@H](C)O)NC(=O)[C@H](CCC(=O)O)NC(=O)[C@H](CCCNC(=N)N)NC(=O)[C@H](CCC(N)=O)NC(=O)[C@@H](N)CSSC[C@@H](C(=O)O)NC(=O)CNC(=O)CNC(=O)[C@H](CCCCN)NC(=O)[C@H](C)NC(=O)[C@H](CCC(=O)O)NC1=O [SEQ ID NO:3, (NH2)Cys-Gln-Arg-Glu-Thr-Pro-Glu-Gly-Ala-Glu-Ala-Lys-Gly-Gly-Cys(COOH)] (H-CQRETPEGAEAKGGC-OH; disulfide 1-15) | activation of the sodium ion channels
